As a reminder, the pIC50 is −log10 of the IC50, conventionally taken in molar units.

pIC50: −log10 of the molar value. Where a name gives a salt, the structure may show the parent alone.

In the first test the target is BIR3 domain of XIAP (Homo sapiens (Human), UniProt P98170). The experiment in a line: TR-FRET assay for BIR3: inhibition of binding of XIAP BIR3 domain to Peptide A (SMAC-derived peptide).
Chain of BIR3 domain of XIAP (P98170 241-356 with tags or gaps limits assumed): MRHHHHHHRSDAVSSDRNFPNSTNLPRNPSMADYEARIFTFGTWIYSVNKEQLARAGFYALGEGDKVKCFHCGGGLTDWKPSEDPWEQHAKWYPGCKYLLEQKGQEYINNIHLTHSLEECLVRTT
Settings: not given
A general note: In TR-FRET formats the signal depends on donor and acceptor labels being close together.
Consider `[2H]C([2H])([2H])N[C@@H](C)C(=O)N[C@@H]1C(=O)N(Cc2c(OC)ccc3cc(Br)ccc23)c2ccccc2OC12CCOCC2` [Example 19, (2S)-N-(5-((6-Bromo-2-methoxynaphthalen-1-yl)methyl)-(3S)-4-oxo-2′,3′,5′,6′-tetrahydro-3H-spiro[benzo[b][1,4]oxazepine-2,4′-pyran]-3-yl)-2-(methyl-d3-amino)propanamide hydrochloride], for which the pIC50 is 4.64.

Consider `CN[C@@H](C)C(=O)N[C@H]1CSc2c(NC(=O)C3CCN(C(C)=O)CC3)cccc2N(Cc2cccc3ccccc23)C1=O` [Example 23, 1-Acetyl-piperidine-4-carboxylic acid [(R)-3-((S)-2-methylamino-propionylamino)-5-naphthalen-1-ylmethyl-4-oxo-2,3,4,5-tetrahydro-benzo[b][1,4]thiazepin-9-yl]-amide], for which the pIC50 is under 4.26.

The same test, now with this note: read-out: BIR3 IC50.
For the compound `CC[C@H](NC)C(=O)N[C@@H]1C(=O)N(Cc2c(OC)ccc3cc(Br)ccc23)c2ccc(F)cc2OC12CCOCC2` [Example 16, (2S)-N-(5-((6-Bromo-2-methoxynaphthalen-1-yl)methyl)-(3S)-8-fluoro-4-oxo-2′,3′,5′,6′-tetrahydro-3H-spiro[benzo[b][1,4]oxazepine-2,4′-pyran]-3-yl)-2-(methylamino)butanamide hydrochloride], the negative logarithm of the IC50 (pIC50) is under 4.30. Same read-out and setting: the value for `CN[C@@H](C)C(=O)N[C@H]1CSc2c(NC(=O)COCCOC)cccc2N(Cc2cccc3ccccc23)C1=O` [Example 22, (S)-N-{(R)-9-[2-(2-Methoxy-ethoxy)-acetylamino]-5-naphthalen-1-ylmethyl-4-oxo-2,3,4,5-tetrahydro-benzo[b][1,4]thiazepin-3-yl}-2-methylamino-propionamide hydrochloride] was under 4.26; that for `CN[C@@H](C)C(=O)N[C@H]1COc2ccccc2N(Cc2nn(-c3ccccc3C#N)c3cc(Br)ccc23)C1=O` [Example 72, (S)-N-((S)-5-((6-Bromo-1-(2-cyanophenyl)-1H-indazol-3-yl)methyl)-4-oxo-2,3,4,5-tetrahydrobenzo[b][1,4]oxazepin-3-yl)-2-(methylamino)propanamide trifluoroacetate] was under 4.26.

In the next test the target is BIR2 domain of XIAP (Homo sapiens (Human), UniProt P98170, C202A/C213G). The experiment in a line: TR-FRET assay for BIR2: inhibition of binding of XIAP BIR2 domain to Peptide A (SMAC-derived peptide).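 Also: percent inhibition measured across a concentration series of each compound, from which the IC50 was derived.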
Chain of BIR2 domain of XIAP (P98170 other isoform, or with tags, fused parts or gaps, stated change not applied): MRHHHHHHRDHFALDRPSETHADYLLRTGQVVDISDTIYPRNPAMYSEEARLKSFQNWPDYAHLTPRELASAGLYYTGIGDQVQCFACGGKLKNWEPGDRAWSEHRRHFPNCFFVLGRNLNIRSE
Settings: not given
Compound `CN[C@@H](C)C(=O)N[C@H]1C(=O)N(Cc2c(OC)ccc3cc(Br)ccc23)c2ccccc2OC12CCOCC2` [Example 1f] had a pIC50 of 5.36.

`CN[C@@H](C)C(=O)N[C@@H]1C(=O)N(Cc2c(OC)ccc3cc(Br)ccc23)c2ccccc2OC12CCOCC2` [Example 1g] gave a pIC50 of 7.19. Same read-out and setting: the value for `CN[C@@H](C)C(=O)N[C@@H]1C(=O)N(Cc2c(OC)cnc3ccccc23)c2ccccc2OC12CCOCC2` [Example 1r] was 6.85; that for `CN[C@@H](C)C(=O)N[C@H]1CSc2c(NC(=O)C3CCN(C(C)=O)CC3)cccc2N(Cc2cccc3ccccc23)C1=O` [Example 23, 1-Acetyl-piperidine-4-carboxylic acid [(R)-3-((S)-2-methylamino-propionylamino)-5-naphthalen-1-ylmethyl-4-oxo-2,3,4,5-tetrahydro-benzo[b][1,4]thiazepin-9-yl]-amide] was 6.43. On the same count and under the same terms, to `CN[C@@H](C)C(=O)N[C@@H]1C(=O)N(Cc2nn(-c3ccc(C(=O)O)cc3C#N)c3ccccc23)c2ccccc2O[C@H]1C` [Example 80, 3-Cyano-4-(3-(((2S,3S)-2-methyl-3-((S)-2-(methylamino)propanamido)-4-oxo-3,4-dihydrobenzo[b][1,4]oxazepin-5(2H)-yl)methyl)-1H-indazol-1-yl)benzoic acid trifluoroacetate] belongs 6.93.

The test is the same for the next values; noted with them: read-out: BIR2 IC50.
On to `CN[C@@H](C)C(=O)N[C@H]1COc2ccccc2N(Cc2c(OC)ccc3ccccc23)C1=O` [Example 29b], for which the pIC50 was 6.70.

On to `CN[C@@H](C)C(=O)N[C@H]1COc2ccccc2N(Cc2c(OC)ccc3cc(C(=O)OC)ccc23)C1=O` [Example 31, Methyl 6-methoxy-5-(((S)-3-((S)-2-(methylamino)propanamido)-4-oxo-3,4-dihydrobenzo[b][1,4]oxazepin-5(2H)-yl)methyl)-2-naphthoate trifluoroacetate], for which the negative-log IC50 (pIC50) was 6.72. On to `CN[C@@H](C)C(=O)N[C@H]1COc2ccccc2N(Cc2c(OC)ccc3cc(C(=O)O)ccc23)C1=O` [Example 32, 6-Methoxy-5-(((S)-3-((S)-2-(methylamino)propanamido)-4-oxo-3,4-dihydrobenzo[b][1,4]oxazepin-5(2H)-yl)methyl)-2-naphthoic acid trifluoroacetate], for which the negative-log IC50 (pIC50) is 7.26. Turning to `CN[C@@H](C)C(=O)N[C@@H]1C(=O)N(Cc2c(OC)ccc3cc(Br)ccc23)c2ccc(C)cc2O[C@H]1C` [Example 39, (S)-N-((2S,3S)-5-((6-Bromo-2-methoxynaphthalen-1-yl)methyl)-2,8-dimethyl-4-oxo-2,3,4,5-tetrahydrobenzo[b][1,4]oxazepin-3-yl)-2-(methylamino)propanamide trifluoroacetate], the pIC50 was 7.27. For `CN[C@@H](C)C(=O)N[C@H]1COc2ccc(C(F)(F)F)cc2N(Cc2c(OC)ccc3cc(Br)ccc23)C1=O` [Example 42, (S)-N-((S)-5-((6-Bromo-2-methoxynaphthalen-1-yl)methyl)-4-oxo-7-(trifluoromethyl)-2,3,4,5-tetrahydrobenzo[b][1,4]oxazepin-3-yl)-2-(methylamino)propanamide trifluoroacetate], the pIC50 was 7.24. As for `CN[C@@H](C)C(=O)N[C@@H]1C(=O)N(Cc2c(OC)ccc3cc(Br)ccc23)c2cc(C(F)(F)F)ccc2O[C@H]1C` [Example 43, (S)-N-[(6S,7S)-9-(6-Bromo-2-methoxy-naphthalen-1-ylmethyl)-6-methyl-8-oxo-2-trifluoromethyl-6,7,8,9-tetrahydro-5-oxa-9-aza-benzocyclohepten-7-yl]-2-methylamino-propionamide trifluoroacetate], the pIC50 was 7.04. Same read-out and setting: the value for `CN[C@@H](C)C(=O)N[C@H]1COc2ccccc2N(Cc2cccc(Cl)c2)C1=O` [Example 46, (S)-N-((S)-5-(3-Chlorobenzyl)-4-oxo-2,3,4,5-tetrahydrobenzo[13,][1,4]oxazepin-3-yl)-2-(methylamino)propanamide] was 5.51; that for `CN[C@@H](C)C(=O)N[C@H]1COc2c(C(=O)O)cccc2N(Cc2c(OC)ccc3cc(Br)ccc23)C1=O` [Example 48, (S)-5-((6-bromo-2-methoxynaphthalen-1-yl)methyl)-3-((S)-2-(methylamino)propanamido)-4-oxo-2,3,4,5-tetrahydrobenzo[b][1,4]oxazepine-9-carboxylic acid trifluoroacetate] was 7.05; that for `CN[C@@H](C)C(=O)N[C@H]1COc2c(C(=O)NCCC(=O)O)cccc2N(Cc2c(OC)ccc3cc(Br)ccc23)C1=O` [Example 50, 3-{[(S)-9-(6-Bromo-2-methoxy-naphthalen-1-ylmethyl)-74S)-2-methylamino-propionylamino)-8-oxo-6,7,8,9-tetrahydro-5-oxa-9-aza-benzocycloheptene-4-carbonyl]-amino}-propionic acid trifluoroacetate] was 6.87. `CN[C@@H](C)C(=O)N[C@H]1COc2c(C(=O)NCc3ccc(C(=O)OC)cc3)cccc2N(Cc2c(OC)ccc3cc(Br)ccc23)C1=O` [Example 51, 4-({[(S)-9-(6-Bromo-2-methoxy-naphthalen-1-ylmethyl)-7-((S)-2-methylamino-propionylamino)-8-oxo-6,7,8,9-tetrahydro-5-oxa-9-aza-benzocycloheptene-4-carbonyl]-amino}-methyl)-benzoic acid methyl ester]: the pIC50 is 6.39. The same measure, in the same setting: the value for `CN[C@@H](C)C(=O)N[C@H]1COc2c(C(=O)O)cccc2N(Cc2c(OC)ccc3cc(C(=O)O)ccc23)C1=O` [Example 52, (S)-5-((6-Carboxy-2-methoxynaphthalen-1-yl)methyl)-3-((S)-2-(methylamino)propanamido)-4-oxo-2,3,4,5-tetrahydrobenzo[b][1,4]oxazepine-9-carboxylic acid trifluoroacetate] was 7.23; that for `CN[C@@H](C)C(=O)N[C@H]1COc2c(C(=O)O)cccc2N(Cc2ccc(Br)c3ccccc23)C1=O` [Example 54, (S)-5-((4-Bromonaphthalen-1-yl)methyl)-3-((S)-2-(methylamino)propanamido)-4-oxo-2,3,4,5-tetrahydrobenzo[b][1,4]oxazepine-9-carboxylic acid trifluoroacetate] was 6.19; that for `CN[C@@H](C)C(=O)N[C@H]1COc2c(C(=O)N3CCN(CCO)CC3)cccc2N(Cc2ccc(Br)c3ccccc23)C1=O` [Example 55, (S)-N-((S)-5-((4-Bromonaphthalen-1-yl)methyl)-9-(4-(2-hydroxyethyl)piperazine-1-carbonyl)-4-oxo-2,3,4,5-tetrahydrobenzo[b][1,4]oxazepin-3-yl)-2-(methylamino)propanamide] was 6.02. Regarding `CN[C@@H](C)C(=O)N[C@H]1COc2c(C(=O)N3CCN(CCCO)CC3)cccc2N(Cc2ccc(Br)c3ccccc23)C1=O` [Example 56, (S)-N-((S)-5-((4-Bromonaphthalen-1-yl)methyl)-9-(4-(3-hydroxypropyl)piperazine-1-carbonyl)-4-oxo-2,3,4,5-tetrahydrobenzo[b][1,4]oxazepin-3-yl)-2-(methylamino)propanamide], the pIC50 was 5.80. Same read-out and setting: to `CN[C@@H](C)C(=O)N[C@H]1COc2ccccc2N(Cc2cc(=O)n(C)c3ccc(F)cc23)C1=O` [Example 61, (S)-N-((S)-5-((6-Fluoro-1-methyl-2-oxo-1,2-dihydroquinolin-4-yl)methyl)-4-oxo-2,3,4,5-tetrahydrobenzo[b][1,4]oxazepin-3-yl)-2-(methylamino)propanamide] belongs 6.16. Still for that read-out and setting: the value for `CN[C@@H](C)C(=O)N[C@H]1COc2ccccc2N(Cc2nn(-c3ccccc3C#N)c3cc(Br)ccc23)C1=O` [Example 72, (S)-N-((S)-5-((6-Bromo-1-(2-cyanophenyl)-1H-indazol-3-yl)methyl)-4-oxo-2,3,4,5-tetrahydrobenzo[b][1,4]oxazepin-3-yl)-2-(methylamino)propanamide trifluoroacetate] was 6.55. Take `CC[C@H](NCCO)C(=O)N[C@H]1COc2ccccc2N(Cc2c(OC)ccc3cc(Br)ccc23)C1=O` [Example 83, (S)-N-((S)-5-((6-Bromo-2-methoxynaphthalen-1-yl)methyl)-4-oxo-2,3,4,5-tetrahydrobenzo[b][1,4]oxazepin-3-yl)-2-(2-hydroxyethylamino)butanamide trifluoroacetate]: the pIC50 was 7.36.

Consider `CN[C@@H](C)C(=O)N[C@H]1COc2c(cccc2C(F)(F)F)N(Cc2noc3ccccc23)C1=O` [Example 90, (S)-N-((S)-5-(Benzo[d]isoxazol-3-ylmethyl)-4-oxo-9-(trifluoromethyl)-2,3,4,5-tetrahydrobenzo[b][1,4]oxazepin-3-yl)-2-(methylamino)propanamide hydrochloride], for which the pIC50 is 6.31.
